“Also recorded” adds a separate entry of the source. Read-outs that look alike come from different tables or passages of the source.
How the values were obtained:
[1] = Solubility assay: turbidity in water, absorbance at 620 nm; type: physicochemical; conditions: pure H2O with 1% DMSO, 37° C., 1-2 h shaking, absorbance 620 nm; compared with compound 1
Protocol: Aqueous solubility was assessed as the degree of turbidity of compound in aqueous solutions, detected by absorbance at 620 nm. Higher turbidity indicated lower solubility. The experiments were performed in triplicate, with the results as the means±SD of triplicate wells.
Each compound was prepared at concentrations from 40 mM to 0.1 mM in DMSO in a serial-dilution manner. 2 μL of each of the above compound solutions was then dispensed directly to ˜198 μL of pure H2O in a 96-well white clear bottom microplate. Resulting solutions were shaken at 37° C. temperature 1-2 h on a rotary shaker at varying shaking rates to reach equilibrium solubility. The turbidity of the solution was measured using UV-visible spectrophotometry at 620 nm.
We investigated whether the compounds of the present disclosure have improved aqueous solubility. Using a thermodynamic turbidimetric assay we evaluated the aqueous solubility of several of the newly synthesized compounds.

pancreatic β-cells = conditions: cited from earlier work
INS-1 cells = test: Cell viability assay: INS-1 β-cells co-treated with compound and tunicamycin (Tm), CellTiter-Glo intracellular ATP; type: cell-based, rat; conditions: for Max Activity (%) / Emax: % rescue from Tm (0.15 μg/mL)-induced reduction of INS-1 cell viability, intracellular ATP, 72 h, Tm alone = 0%, DMSO control without Tm = 100%; for EC50: ten 2-fold serial titration points, triplicate, read-out: EC50 (μM), concentration that reaches half-maximal activity for INS-1 cell viability; for Emax: INS1, 72 h, read-out: Max Activity (%); for β-cell protective activity against Tm (in words): INS-1 cells in the presence of Tm
Protocol: INS-1 cells were cultured in RPMI 1640 medium (Corning) supplemented with 10% FBS (Atlanta Biologicals), 10 mM HEPES (Gibco-Life Technologies), 1 mM sodium pyruvate (Corning), 50 μM 2-mercaptoethanol (Sigma-Aldrich), and antibiotics (100 UI/mL penicillin and 100 µg/mL streptomycin; Corning) and maintained in a humidified 5% CO2 atmosphere at 37° C.
INS-1 cells were resuspended in RPMI 1640 medium containing 10% FBS and plated at 5×10^3 cells/(40 μL.well) into white clear bottom 384-well plates (Greiner) using an automated liquid handler (Biotek). After 24 h incubation at 37° C., library compounds were added to the wells at the indicated concentration using a pin-transfer robot (PerkinElmer). Tunicamycin (Tm) in RPMI 1640 medium containing 10% FBS was then added at a final concentration of 0.15 μg/mL. After 72 h, the medium was removed and 20 μL of CellTiter-Glo reagent which measures intracellular ATP levels as an indicator of viability (Promega) was added. Luminescence was measured 10 min later using an Envision plate reader (PerkinElmer).
We designed and synthesized novel benzylamino-oxoethyl benzamide analogs (5a-q, Table 1) and studied their effects on β-cell protection against ER stress. The analogs were tested for the viability of rat INS-1 β-cells in the presence of Tm, a potent ER stress inducer that inhibits N-linked glycosylation of proteins. The maximum activities and the concentrations that reach half-maximal activity (EC50) of the compounds were evaluated by the degree of increase in viability of INS-1 cells co-treated with the compounds in the presence of Tm compared with Tm treatment alone.

[2] = Rattus norvegicus, INS1, INS-1 cells with Tm 0.15 μg/mL

aqueous solubility (turbidimetric, in words) [1]	SMILES	protective activity for pancreatic β-cells against ER stress (previously shown) (pancreatic β-cells)	Max Activity (%) (INS-1 cells)	EC50 (INS-1 cells; INS-1 cells with Tm 0.15 μg/mL)	Emax (INS-1 cells; Rattus norvegicus)	EC50 (INS-1 cells; [2])	β-cell protective activity against Tm (in words) (INS-1 cells)
	Cc1ccc(C)c(CNC(=O)CNC(=O)c2cccc(Cl)c2C)c1 [Compound 5a, 3-Chloro-N-(2-((2,5-dimethylbenzyl)amino)-2-oxoethyl)-2-methylbenzamide]		45%	18 ± 4 µM	45%	18.6 µM	
	Cc1c(Cl)cccc1C(=O)NCC(=O)NCc1ccccn1 [Compound 5b, 3-Chloro-2-methyl-N-(2-oxo-2-((pyridin-2-ylmethyl)amino)ethyl)benzamide]		16%		16%	38 ± 9 µM	
	Cc1c(Cl)cccc1C(=O)NCC(=O)Nc1ccc2nc[nH]c2c1 [Compound 5c, N-(2-((1H-benzo[d]imidazol-6-yl)amino)-2-oxoethyl)-3-chloro-2-methylbenzamide]				0%		
	COc1ccc(CNC(=O)CNC(=O)c2cccc(Cl)c2C)cc1 [Compound 5d, 3-Chloro-N-(2-((4-methoxybenzyl)amino)-2-oxoethyl)-2-methylbenzamide]		55%		41 to 55%	32 ± 7 µM	
	Cc1c(Cl)cccc1C(=O)NCC(=O)NCc1ccc(S(N)(=O)=O)cc1 [Compound 5e, 3-Chloro-2-methyl-N-(2-oxo-2-((4-sulfamoylbenzyl)amino)ethyl)benzamide]		52%		41 to 55%	40 ± 12 µM	
	Cc1c(Cl)cccc1C(=O)NCC(=O)NCCc1ccc(O)cc1 [Compound 5f, 3-Chloro-N-(2-((4-hydroxyphenethyl)amino)-2-oxoethyl)-2-methylbenzamide]		41%		41 to 55%	34 ± 8 µM	
improved water solubility	Cc1c(Cl)cccc1C(=O)NCC(=O)NCc1ccc(C(F)(F)F)cc1 [Compound 5g, 3-Chloro-2-methyl-N-(2-oxo-2-((4-(trifluoromethyl)benzyl)amino)ethyl)benzamide]		88%		88%	13 ± 1 µM	
improved water solubility	COc1cc(CNC(=O)CNC(=O)c2cccc(Cl)c2C)ccc1O [Compound 5h, 3-Chloro-N-(2-((4-hydroxy-3-methoxybenzyl)amino)-2-oxoethyl)-2-methylbenzamide]		100%		100%	10 ± 2 µM	
	Cc1c(Cl)cccc1C(=O)NCC(=O)NCc1cccc(C(F)(F)F)c1 [Compound 5i, 3-Chloro-2-methyl-N-(2-oxo-2-((3-(trifluoromethyl)benzyl)amino)ethyl)benzamide]		46%		46%	32 ± 7 µM	
	O=C(CNC(=O)c1ccccc1)NCc1ccc(C(F)(F)F)cc1 [Compound 5j, N-(2-Oxo-2-((4-(trifluoromethyl)benzyl)amino)ethyl)benzamide]		35%	43 ± 11 µM	35%		
	CCc1ccc(C(=O)NCC(=O)NCc2ccc(C(F)(F)F)cc2)cc1 [Compound 5k, 4-Ethyl-N-(2-oxo-2-((4-(trifluoromethyl)benzyl)amino)ethyl)benzamide]		42%	45 ± 8 µM	42%		
	O=C(CNC(=O)c1ccc(F)cc1)NCc1ccc(C(F)(F)F)cc1 [Compound 5l, 4-fluoro-N-(2-oxo-2-((4-(trifluoromethyl)benzyl)amino)ethyl)benzamide]		12%		12%	41 ± 6 µM	
improved water solubility	O=C(CNC(=O)c1cccc(O)c1)NCc1ccc(C(F)(F)F)cc1 [Compound 5m, 3-Hydroxy-N-(2-oxo-2-((4-(trifluoromethyl)benzyl)amino)ethyl)benzamide]		100%		100%	0.1 µM	
	COc1cc(CNC(=O)CNC(=O)c2cccc(O)c2)ccc1O [Compound 5n, 3-Hydroxy-N-(2-((4-hydroxy-3-methoxybenzyl)amino)-2-oxoethyl)benzamide]				30%	65 ± 8 µM	significantly compromised activity
	COc1cc(C(=O)NCC(=O)NCc2ccc(C(F)(F)F)cc2)ccc1O [Compound 5o, 4-hydroxy-3-methoxy-N-(2-oxo-2-((4-(trifluoromethyl)benzyl)amino)ethyl)benzamide]				43%	29 ± 6 µM	significantly compromised activity
	Cc1c(Cl)cccc1C(=O)NC(C)C(=O)NCc1ccc(C(F)(F)F)cc1 (stereo not drawn) [Compound 5p, 3-Chloro-2-methyl-N-(1-oxo-1-((4-(trifluoromethyl)benzyl)amino)propan-2-yl)benzamide]				34%	63 ± 4 µM	significantly less or not active
	Cc1c(Cl)cccc1C(=O)NC(Cc1ccc(O)cc1)C(=O)NCc1ccc(C(F)(F)F)cc1 (stereo not drawn) [Compound 5q, 3-Chloro-N-(3-(4-hydroxyphenyl)-1-oxo-1-((4-(trifluoromethyl)benzyl)amino)propan-2-yl)-2-methylbenzamide]		Cytotoxic				significantly less or not active

SMILES	aqueous solubility (turbidimetric, in words) [1]	protective activity for pancreatic β-cells against ER stress (previously shown) (pancreatic β-cells)	Max Activity (%) (INS-1 cells)	EC50 (INS-1 cells; INS-1 cells with Tm 0.15 μg/mL)	Emax (INS-1 cells; Rattus norvegicus)	EC50 (INS-1 cells; [2])	β-cell protective activity against Tm (in words) (INS-1 cells)
Cc1ccc(C)c(NC(=O)c2nnn(-c3cccc(Cl)c3C)c2C)c1 [Compound 1, 1-(3-chloro-2-methylphenyl)-N-(2,5-dimethylphenyl)-5-methyl-1H-1,2,3-triazole-4-carboxamide, reference compound]	sub-optimal aqueous solubility; also recorded: poor water solubility	protective activity					

Source: patent US11999677B2, “Benzylamino-oxoethyl benzamide analogs and methods of use” (The Board of Regents of the University of Oklahoma, priority 2018, dated 2024)
